Assay results: PMC6594751, “The mechanism of error induction by the antibiotic viomycin provides insight into the fidelity mechanism of translation” (eLife, 2019)
Like-named read-outs stand apart in the source and are kept apart here.

Key:
tRNA selection = tested on: tRNA selection; set-up: method as in Marrero et al., 1980; settings: ref Marrero et al., 1980; cited from earlier work
[1] = tested on: peptidyl-tRNA in the ribosomal A site; settings: ref Holm et al., 2016; Peske et al., 2004; cited from earlier work
[2] = tested on: 70S ribosomes displaying cognate (UUC) or near-cognate (CUC) codon in the A site; assay: GTP hydrolysis by EF-Tu in ternary complex (initial codon selection), quench-flow; format: biochemical, E. coli
From the text: (§1) To study the impact of viomycin on translational accuracy, we designed experiments to measure its effect on the kinetic efficiency ( kcat/KM ) of GTP hydrolysis by EF-Tu and peptide bond formation for both cognate and near-cognate codon-anticodon interactions. A reaction mixture containing varying concentrations of viomycin and Phe-tRNAGAAPhe in TC with EF-Tu·GTP was rapidly mixed in a quench-flow instrument with initiated 70S ribosomes displaying either cognate (UUC) or near-cognate (CUC) codons in the A site. For studying GTP hydrolysis, the TCs contained [^3H]GTP and the 70S ribosomes had non-radioactive fMet-tRNA^fMet in the P site, while for studying peptide bond formation the TCs contained non-radioactive GTP and the 70S ribosomes had f[^3H]Met-tRNA^fMet bound in the P site. The reactions were stopped at different times by addition of formic acid and the relative amounts of the reaction products were analyzed by ion-exchange chromatography ([^3H]GDP) or RP-HPLC (f[^3H]Met-Phe) with on-line radiation detection.
(§2) All experiments were performed at 37°C in HEPES-polymix buffer (95 mM KCl, 5 mM NH4Cl, 0.5 mM CaCl2, 8 mM putrescine, 1 mM spermidine, 5 mM Mg(OAc)2, 1 mM dithioerythritol and 5 mM HEPES pH 7.5). All reaction mixes contained 10 mM phosphoenolpyruvate (PEP), 1 µg/ml pyruvate kinase (PK) and 0.1 µg/ml myokinase (MK). His-tagged initiation factors IF1, IF2 and IF3, elongation factor Ts, and phenylalanine and leucine aminoacyl tRNA-synthetases were purified using nickel-affinity chromatography (HisTrap GE Healthcare). Wild-type elongation factor Tu was prepared as in [Ehrenberg et al. (1990)]. All protein concentrations were determined using the Bradford assay. Ribosomes (E. coli MRE600) and f[^3H]Met-tRNA^fMet were prepared according to [Antoun et al. (2004)]; ribosome concentration was determined spectrophotometrically. XR7 mRNAs with coding sequences AUG-UUC, AUG-CUC, AUG-UAC and AUG-UUA were prepared as in [Borg and Ehrenberg (2015)], see theGV Appendix I for full mRNA sequences. tRNA^Phe was prepared as in [Holm et al. (2016)]. [^3H]Met and [^3H]GTP were from Perkin-Elmer, viomycin was from USP, all other chemicals were from either Merck or Sigma-Aldrich.
Two mixtures were prepared. The ribosome mixture contained 70S ribosomes (1.0–2.0 µM), IF1, IF2 and IF3 (2 µM each), fMet-tRNA^fMet(1.5–3.0 µM), mRNA (3 µM), GTP (1 mM) and ATP (1 mM). The TC mixture contained EF-Tu (0.3–0.6 µM), phenylalanine (200 µM), PheRS (0.5 µM), tRNA^Phe (2 µM), viomycin (0–2000 µM), [^3H]GTP (0.3–0.6 µM) and ATP (2 mM). After 15 min incubation at 37°C, equal volumes of the two mixes were rapidly mixed and the reaction quenched at different time points with formic acid (17% final concentration) using a quench-flow instrument (RQF-3 KinTek corp.). After quenching, the samples were centrifuged at 20,800 g. The supernatant, containing the [^3H]GTP and [^3H]GDP was analyzed by anion exchange chromatography with on-line scintillation counting (β-RAM model 4 IN/US systems). A Mono-Q GL column (GE Healthcare) was used and the mobile phase was a multistep gradient of 0–2 M NaCl in 20 mM Tris (pH 7.5).
Reaction rates were estimated by fitting of single exponential functions to the experimental time courses except for the GTP hydrolysis reactions without viomycin on near-cognate codons which were analyzed as in [Johansson et al. (2012)]. kcat/KM values were estimated by fitting of the Michaelis-Menten equation to plots of reaction rates versus concentration. […]

[3] = tested on: 70S ribosomes displaying cognate UUC or near-cognate codons CUC, AUC, UAC or UUA in the A site; assay: f[^3H]Met-Phe dipeptide formation, quench-flow; format: biochemical, E. coli
From the text: as §1
The model presented above predicts that viomycin sensitivity ( KInc ) for any codon·anticodon pair depends on the accuracy of initial codon selection as defined by the product of the near-cognate back reaction rate constants q3nc and q4nc (Equations 4 and 5) in the absence as well as presence of viomycin. […] To test this prediction, we measured how the kcat/KM of dipeptide formation varied with viomycin concentration for tRNAGAAPhe reading three additional near-cognate codons (Figure 4A); AUC, UAC or UUA (the underlined base differs from the cognate codon UUC). We quantified the viomycin sensitivity of each codon by estimating its KI value by fitting of Equation 4 to plots of kcat/KM versus viomycin concentration (Figure 4B). We also estimated the accuracies of initial selection by measuring kcat/KM for GTP hydrolysis with the three codons in the absence of viomycin. Both sets of experiments were carried out exactly as described above.
as §2
Two mixtures were prepared. The ribosome mixture contained 70S ribosomes (0.5 µM), IF1, IF2 and IF3 (1 µM each), f[^3H]Met-tRNA^fMet (1 µM), mRNA (2 µM), GTP (1 mM) and ATP (1 mM). The TC mixture contained EF-Tu (1–10 µM), EF-Ts (1 µM), phenylalanine (200 µM), PheRS (0.5 µM), tRNA^Phe (12 µM), viomycin (0–2000 µM), GTP (1 mM) and ATP (1 mM). After 15 min incubation at 37°C, equal volumes of the two mixes were rapidly mixed and the reaction quenched at different time points with formic acid (17% final concentration) using a quench-flow instrument (RQF-3 KinTek corp.). After quenching, the samples were centrifuged at 20,800 g and the supernatant discarded. The pellet was dissolved in 165 µl 0.5 M KOH to cleave the peptides from the tRNA. […]

[4] = tested on: TC^H84A on 70S ribosomes displaying cognate UUC or near-cognate CUC codon; assay: EF-Tu^H84A chase experiments (ternary complex dissociation from the A site); format: biochemical, E. coli; settings: 37°C
From the text: To address whether viomycin also stabilizes TCs in the A site during initial codon selection, we estimated the rate of dissociation of both cognate and near-cognate tRNAs in TC (TC ^H84A) with a GTPase-deficient mutant of EF-Tu (EF-Tu^H84A). In this EF-Tu mutant, an essential histidine in the G-domain has been replaced by alanine ([Daviter et al., 2003]), but formation of TC ^H84A is unhindered and the mutant TC carries out all partial reactions during initial codon selection, excluding GTP hydrolysis ([Daviter et al., 2003]; [Gromadski and Rodnina, 2004]). Initiated 70S ribosomes with f[^3H]Met-tRNA^fMet in the P site and a cognate (UUC) or near-cognate (CUC) codon in the A site were equilibrated with TC^H84A containing Phe-tRNAGAAPhe and GTP in the presence of varying concentrations of viomycin. TC^H84As were chased from the A site by addition of GTPase proficient TC, containing WT EF-Tu (EF-Tu^WT) and either Phe-tRNAGAAPhe or Leu-tRNAGAGLeu2 , whichever was cognate for the codon in the A site. The dissociation rate for TC^H84A s from the A site, defined as the inverse of the average dissociation time, was then estimated from the rate of f[^3H]Met-Phe or f[^3H]Met-Leu formation (supplementary methods).
as §2
The wild type tufA gene from E. coli Mg1655 was cloned in the pET21b vector with a C-terminal hexahistidine tag. Using this construct, the Histidine at position 84 was changed to Alanine by following the standard protocol from the QIAGEN site directed mutagenesis kit. Successful mutation was confirmed by DNA sequencing. […]

ribosome = settings: ref Holm et al., 2016; cited from earlier work
From the text: From these structures it seems likely that association of viomycin to the ribosome requires bases A1492 and A1493 in their flipped-out conformation and that the presence of viomycin on the ribosome will effectively block the monitoring bases from re ...

mRNA translocation = settings: ref Holm et al., 2016; Modolell and Vázquez, 1977; cited from earlier work
[5] = CUC vs UUC, 1 mM viomycin vs absence of viomycin

viomycin
effect on fidelity of tRNA selection (tRNA selection): impairs the fidelity of tRNA selection
stabilization of peptidyl-tRNA in the ribosomal A site [1]: strongly stabilize peptidyl-tRNA in the ribosomal A site
reduction in the accuracy of initial codon selection [2, 5]: 170 fold
kcat/KM of cognate GTP hydrolysis (average over 0 to 1 mM viomycin) ([2]; cognate UUC codon, Phe-tRNA^Phe TC, viomycin 0 to 1 mM, HEPES-polymix pH 7.5, 37°C, error SEM): 4.1e+07 ± 600000 M⁻¹ s⁻¹
effect of viomycin on kcat/KM of cognate GTP hydrolysis ([2]; cognate UUC codon, viomycin 0 to 1 mM, 37°C): did not change with increasing viomycin concentration
kcat/KM of near-cognate GTP hydrolysis ([2]; near-cognate CUC codon, 1 mM viomycin (0.053 ± 0.005 in the absence of viomycin), HEPES-polymix pH 7.5, 37°C, error SEM): 9.2e+06 ± 700000 M⁻¹ s⁻¹
Ki ([2]; tRNA^Phe(GAA) reading near-cognate codon CUC, fit of Equation 4 (Figure 1B), 37°C, read-out: KI (viomycin concentration at which accuracy has decreased to two), from GTP hydrolysis): 3.1 ± 0.2 mM
total accuracy ([3]; CUC vs UUC, 1 mM viomycin (83,500 ± 8000 without viomycin)): 4.0 ± 0.3
reduction in total accuracy [3, 5]: 21,000 fold
correlation of accuracy of initial selection with viomycin KI ([3]; codons CUC, AUC, UAC, UUA (Figure 4C)): clear correlation between the two
effect of viomycin on kcat/KM of cognate dipeptide formation ([3]; cognate UUC codon, 37°C): did not change with the addition of viomycin
kcat/KM of cognate dipeptide formation (average over viomycin concentrations) ([3]; cognate UUC codon, HEPES-polymix pH 7.5, 37°C, error SEM): 3.83e+07 ± 700000 M⁻¹ s⁻¹
kcat/KM of near-cognate dipeptide formation ([3]; near-cognate CUC codon, 1 mM viomycin (0.0005 ± 0.00004 in the absence of viomycin), HEPES-polymix pH 7.5, 37°C, error SEM): 9.4e+06 ± 800000 M⁻¹ s⁻¹
kcat/KM of near-cognate GTP hydrolysis compared with dipeptide formation ([3]; near-cognate CUC codon, all tested viomycin concentrations): virtually identical
viomycin concentration required to double the rate at which tRNA^Phe reads the codon CUC ([3]; near-cognate CUC, from in vitro experiments): 80 ± 8 nM
proofreading selection by viomycin-bound ribosomes ([3]; near-cognate, proofreading accuracy 115 ± 15 in the absence of viomycin): incapable of performing proofreading selection
Ki ([3]; tRNA^Phe(GAA) reading near-cognate codon AUC (first position mismatch), fit of Equation 4, accuracy of initial selection 2400 ± 120 without viomycin, read-out: KI from dipeptide formation, AUC): 7 ± 0.3 mM
Ki ([3]; tRNA^Phe(GAA) reading near-cognate codon CUC, fit of Equation 4 (Figure 1D), 37°C, read-out: KI (viomycin concentration at which accuracy has decreased to two), from dipeptide formation, CUC): 3.3 ± 0.1 mM
Ki ([3]; tRNA^Phe(GAA) reading near-cognate codon UAC (second position mismatch), fit of Equation 4, accuracy of initial selection 6400 ± 670 without viomycin, read-out: KI from dipeptide formation, UAC): 29 ± 2.7 mM
Ki ([3]; tRNA^Phe(GAA) reading near-cognate codon UUA (third position mismatch), fit of Equation 4, accuracy of initial selection 580 ± 47 without viomycin, read-out: KI from dipeptide formation, UUA): 3.25 ± 0.2 mM
rate of TC^H84A dissociation, cognate, 1 µM viomycin ([4]; cognate UUC codon, 1 µM viomycin (1.21 ± 0.088 in the absence of viomycin), pH 7.5): 0.616 ± 0.044 s⁻¹
rate of TC^H84A dissociation, cognate, 10 µM viomycin ([4]; cognate UUC codon, 10 µM viomycin (1.21 ± 0.088 in the absence of viomycin), pH 7.5): 0.198 ± 0.0275 s⁻¹
apparent near-cognate TC^H84A dissociation rate, 200 µM viomycin ([4]; near-cognate CUC codon, 200 µM viomycin, pH 7.5): 0.209 ± 0.066 s⁻¹
Ki ([4]; tRNA^Phe(GAA) reading cognate codon UUC, linear fit of Equation 6 to dissociation mean times (Figure 2B), read-out: KI^c (viomycin concentration at which rate of viomycin rebinding to TC-bound ribosome equals rate of TC dissociation unhindered by rebinding)): 0.0094 ± 0.0033 mM
effect of A-site-bound tRNA on affinity of viomycin for the ribosome (ribosome): A-site-bound tRNA greatly increases the affinity of viomycin for the ribosome
effect on rate of mRNA translocation (mRNA translocation): reduces the rate of mRNA translocation
